What was measured:
late watergrass = test: Test Example 2: herbicidal activity, application during weed generation under submerged conditions (Table 17, symbol A); format: in vivo, late watergrass (Echinochloa oryzicola); settings: AAH 320 g/ha; application during weed generation, submerged conditions
Outline: (§1)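 Mixed weed seedlings in alluvial soil under a 4 cm water layer, greenhouse-grown at 25–30° C. Compound given as a diluted emulsion into the floodwater at the 1–2 leaf stage; response graded after three weeks.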

Japanese bulrush = test: Test Example 2: herbicidal activity, application during weed generation under submerged conditions (Table 17, symbol B); format: in vivo, Japanese bulrush (Schoenoplectus juncoides); settings: AAH 320 g/ha; application during weed generation, submerged conditions
Outline: as §1

oval-leafed pondweed = test: Test Example 2: herbicidal activity, application during weed generation under submerged conditions (Table 17, symbol C); format: in vivo, oval-leafed pondweed (Monochoria vaginalis); settings: AAH 320 g/ha; application during weed generation, submerged conditions
Outline: as §1

barnyard grass [1] = test: Test Example 3: herbicidal effect by foliage application, Wagner pot (Table 18, symbol H); format: in vivo, barnyard grass (Echinochloa crus-galli); settings: 320 g/ha
Outline: (§2)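 Plants were sown in alluvial soil held under 0.1–0.5 cm standing water and grown 14 days in a greenhouse at 25–30 °C. An emulsifiable formulation, water-diluted to the set dose, was then sprayed onto the foliage, and effects were scored three weeks later using previously defined criteria.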

Chinese sprangletop = test: Test Example 3: herbicidal effect by foliage application, Wagner pot (Table 18, symbol D); format: in vivo, chinese sprangletop (Leptochloa chinensis); settings: 320 g/ha
Outline: as §2

rice flat sedge = test: Test Example 3: herbicidal effect by foliage application, Wagner pot (Table 18, symbol E); format: in vivo, rice flat sedge (Cyperus iria); settings: 320 g/ha
Outline: as §2

southern crabgrass [2] = test: Test Example 4: herbicidal effect by soil treatment (Table 19, symbol F); format: in vivo, southern crabgrass (Digitaria ciliaris); settings: amount of applied herbicide 320 g/ha
Outline: (§3)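 Scoring uses the grading scale of an earlier test, three weeks post-application. Treatment consists of spraying a diluted emulsion formulation across the surface of sterilized diluvial soil in which seeds are buried near 1.5 cm deep; boxes are kept in a greenhouse between 25° C. and 30° C.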

green foxtail [3] = test: Test Example 4: herbicidal effect by soil treatment (Table 19, symbol G); format: in vivo, green foxtail (Setaria viridis); settings: amount of applied herbicide 320 g/ha
Outline: as §3

barnyard grass [4] = test: Test Example 4: herbicidal effect by soil treatment (Table 19, symbol H); format: in vivo, barnyard grass (Echinochloa crus-galli); settings: amount of applied herbicide 320 g/ha
Outline: as §3

wild oat [5] = test: Test Example 4: herbicidal effect by soil treatment (Table 19, symbol I); format: in vivo, wild oat (Avena fatua); settings: amount of applied herbicide 320 g/ha
Outline: as §3

blackgrass [6] = test: Test Example 4: herbicidal effect by soil treatment (Table 19, symbol J); format: in vivo, blackgrass (Alopecurus myosuroides); settings: amount of applied herbicide 320 g/ha
Outline: as §3

Italian ryegrass [7] = test: Test Example 4: herbicidal effect by soil treatment (Table 19, symbol K); format: in vivo, Italian ryegrass (Lolium multiflorum); settings: amount of applied herbicide 320 g/ha
Outline: as §3

windgrass [8] = test: Test Example 4: herbicidal effect by soil treatment (Table 19, symbol L); format: in vivo, windgrass (Apera spica-venti); settings: amount of applied herbicide 320 g/ha
Outline: as §3

velvetleaf [9] = test: Test Example 4: herbicidal effect by soil treatment (Table 19, symbol M); format: in vivo, velvetleaf (Abutilon theophrasti); settings: amount of applied herbicide 320 g/ha
Outline: as §3

redroot pigweed [10] = test: Test Example 4: herbicidal effect by soil treatment (Table 19, symbol N); format: in vivo, redroot pigweed (Amaranthus retroflexus); settings: amount of applied herbicide 320 g/ha
Outline: as §3

lambsquarters [11] = test: Test Example 4: herbicidal effect by soil treatment (Table 19, symbol O); format: in vivo, lambsquarters (Chenopodium album); settings: amount of applied herbicide 320 g/ha
Outline: as §3

chickweed [12] = test: Test Example 4: herbicidal effect by soil treatment (Table 19, symbol P); format: in vivo, common chickweed (Stellaria media); settings: amount of applied herbicide 320 g/ha
Outline: as §3

persian speedwell [13] = test: Test Example 4: herbicidal effect by soil treatment (Table 19, symbol R); format: in vivo, Persian speedwell (Veronica persica); settings: amount of applied herbicide 320 g/ha
Outline: as §3

southern crabgrass [14] = test: Test Example 5: herbicidal effect by foliage application, plastic box (Table 20, symbol F); format: in vivo, southern crabgrass (Digitaria ciliaris); settings: 320 g/ha, foliage application after 14-day growth, evaluated three weeks after application
Outline: (§4)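 Post-emergence foliar test in sterilized diluvial soil. Compound applied as water-diluted emulsion at a predetermined rate to 14-day-old plants; evaluation at three weeks.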

green foxtail [15] = test: Test Example 5: herbicidal effect by foliage application, plastic box (Table 20, symbol G); format: in vivo, green foxtail (Setaria viridis); settings: 320 g/ha, foliage application after 14-day growth, evaluated three weeks after application
Outline: as §4

barnyard grass [16] = test: Test Example 5: herbicidal effect by foliage application, plastic box (Table 20, symbol H); format: in vivo, barnyard grass (Echinochloa crus-galli); settings: 320 g/ha, foliage application after 14-day growth, evaluated three weeks after application
Outline: as §4

wild oat [17] = test: Test Example 5: herbicidal effect by foliage application, plastic box (Table 20, symbol I); format: in vivo, wild oat (Avena fatua); settings: 320 g/ha, foliage application after 14-day growth, evaluated three weeks after application
Outline: as §4

blackgrass [18] = test: Test Example 5: herbicidal effect by foliage application, plastic box (Table 20, symbol J); format: in vivo, blackgrass (Alopecurus myosuroides); settings: 320 g/ha, foliage application after 14-day growth, evaluated three weeks after application
Outline: as §4

Italian ryegrass [19] = test: Test Example 5: herbicidal effect by foliage application, plastic box (Table 20, symbol K); format: in vivo, Italian ryegrass (Lolium multiflorum); settings: 320 g/ha, foliage application after 14-day growth, evaluated three weeks after application
Outline: as §4

windgrass [20] = test: Test Example 5: herbicidal effect by foliage application, plastic box (Table 20, symbol L); format: in vivo, windgrass (Apera spica-venti); settings: 320 g/ha, foliage application after 14-day growth, evaluated three weeks after application
Outline: as §4

velvetleaf [21] = test: Test Example 5: herbicidal effect by foliage application, plastic box (Table 20, symbol M); format: in vivo, velvetleaf (Abutilon theophrasti); settings: 320 g/ha, foliage application after 14-day growth, evaluated three weeks after application
Outline: as §4

redroot pigweed [22] = test: Test Example 5: herbicidal effect by foliage application, plastic box (Table 20, symbol N); format: in vivo, redroot pigweed (Amaranthus retroflexus); settings: 320 g/ha, foliage application after 14-day growth, evaluated three weeks after application
Outline: as §4

lambsquarters [23] = test: Test Example 5: herbicidal effect by foliage application, plastic box (Table 20, symbol O); format: in vivo, lambsquarters (Chenopodium album); settings: 320 g/ha, foliage application after 14-day growth, evaluated three weeks after application
Outline: as §4

chickweed [24] = test: Test Example 5: herbicidal effect by foliage application, plastic box (Table 20, symbol P); format: in vivo, common chickweed (Stellaria media); settings: 320 g/ha, foliage application after 14-day growth, evaluated three weeks after application
Outline: as §4

persian speedwell [25] = test: Test Example 5: herbicidal effect by foliage application, plastic box (Table 20, symbol R); format: in vivo, Persian speedwell (Veronica persica); settings: 320 g/ha, foliage application after 14-day growth, evaluated three weeks after application
Outline: as §4

CCCC(=O)Oc1c(C)nn(C)c(=O)c1-c1c(-c2ccc(C(F)(F)F)cc2)sc2c(Cl)cccc12 [4-030]
herbicidal effect rating, A: late watergrass (late watergrass): 3 (Herbicidal rate of 40% or more and less than 70%)
herbicidal effect rating, B: Japanese bulrush (Japanese bulrush): 3 (Herbicidal rate of 40% or more and less than 70%)
herbicidal effect rating, C: oval-leafed pondweed (oval-leafed pondweed): 3 (Herbicidal rate of 40% or more and less than 70%)
herbicidal effect on barnyard grass (H) (barnyard grass [1]): 3 (Herbicidal rate of 40% or more and less than 70%)
herbicidal effect on Chinese sprangletop (D) (Chinese sprangletop): 5 (Herbicidal rate of 90% or more (almost completely withered))
herbicidal effect on rice flat sedge (E) (rice flat sedge): 3 (Herbicidal rate of 40% or more and less than 70%)
Herbicidal effect by soil treatment, F: southern crabgrass (southern crabgrass [2]): 0 (Herbicidal rate of 5% or less (almost no effect))
Herbicidal effect by soil treatment, G: green foxtail (green foxtail [3]): 0 (Herbicidal rate of 5% or less (almost no effect))
Herbicidal effect by soil treatment, H: barnyard grass (barnyard grass [4]): 0 (Herbicidal rate of 5% or less (almost no effect))
Herbicidal effect by soil treatment, I: wild oat (wild oat [5]): 0 (Herbicidal rate of 5% or less (almost no effect))
Herbicidal effect by soil treatment, J: blackgrass (blackgrass [6]): 0 (Herbicidal rate of 5% or less (almost no effect))
Herbicidal effect by soil treatment, K: Italian ryegrass (Italian ryegrass [7]): 0 (Herbicidal rate of 5% or less (almost no effect))
Herbicidal effect by soil treatment, L: windgrass (windgrass [8]): 0 (Herbicidal rate of 5% or less (almost no effect))
Herbicidal effect by soil treatment, M: velvetleaf (velvetleaf [9]): 0 (Herbicidal rate of 5% or less (almost no effect))
Herbicidal effect by soil treatment, N: redroot pigweed (redroot pigweed [10]): 0 (Herbicidal rate of 5% or less (almost no effect))
Herbicidal effect by soil treatment, O: lambsquarters (lambsquarters [11]): 0 (Herbicidal rate of 5% or less (almost no effect))
Herbicidal effect by soil treatment, P: chickweed (chickweed [12]): 3 (Herbicidal rate of 40% or more and less than 70%)
Herbicidal effect by soil treatment, R: persian speedwell (persian speedwell [13]): 0 (Herbicidal rate of 5% or less (almost no effect))
herbicidal effect on F: southern crabgrass (evaluation grade 0-5) (southern crabgrass [14]): 0 (Herbicidal rate of 5% or less (almost no effect))
herbicidal effect on G: green foxtail (evaluation grade 0-5) (green foxtail [15]): 0 (Herbicidal rate of 5% or less (almost no effect))
herbicidal effect on H: barnyard grass (evaluation grade 0-5) (barnyard grass [16]): 0 (Herbicidal rate of 5% or less (almost no effect))
herbicidal effect on I: wild oat (evaluation grade 0-5) (wild oat [17]): 3 (Herbicidal rate of 40% or more and less than 70%)
herbicidal effect on J: blackgrass (evaluation grade 0-5) (blackgrass [18]): 0 (Herbicidal rate of 5% or less (almost no effect))
herbicidal effect on K: Italian ryegrass (evaluation grade 0-5) (Italian ryegrass [19]): 0 (Herbicidal rate of 5% or less (almost no effect))
herbicidal effect on L: windgrass (evaluation grade 0-5) (windgrass [20]): 5 (Herbicidal rate of 90% or more (almost completely withered))
herbicidal effect on M: velvetleaf (evaluation grade 0-5) (velvetleaf [21]): 0 (Herbicidal rate of 5% or less (almost no effect))
herbicidal effect on N: redroot pigweed (evaluation grade 0-5) (redroot pigweed [22]): 0 (Herbicidal rate of 5% or less (almost no effect))
herbicidal effect on O: lambsquarters (evaluation grade 0-5) (lambsquarters [23]): 0 (Herbicidal rate of 5% or less (almost no effect))
herbicidal effect on P: chickweed (evaluation grade 0-5) (chickweed [24]): 5 (Herbicidal rate of 90% or more (almost completely withered))
herbicidal effect on R: persian speedwell (evaluation grade 0-5) (persian speedwell [25]): 5 (Herbicidal rate of 90% or more (almost completely withered))
